The values below come from paper PMC11085156 (Molecules, 2024).

Molecules are shown by their SMILES. Like-named read-outs stand apart in the source and are kept apart here.

In data set [1] the test system is human dermal fibroblasts (CRL-2097). Conditions: 50 µM.
Experimental: (§1) DMSO and water were the solvent controls for the artemisinic compounds and teas, respectively. Fibroblasts (passages 10–14) were seeded in 6-well plates in 2 mL medium at a density of 6250 cells/cm^2. After overnight attachment, media were aspirated and replaced with test drugs in growth media at the indicated concentrations and incubated at 37 °C and 5% CO2 in high humidity.
(§2) After 1 or 4 d of treatment, media were aspirated and replaced with media containing resazurin (Thermo Fisher Scientific B21187.03) at a final concentration of 25 µg/mL (stock solution 0.15 mg/mL in DPBS). […] Fluorescence readings were normalized to the appropriate solvent controls.
The test system of data set [2] is ACTA2, COL1A1, COL3A1, TGFB1, TGFB2, TGFBR1, MMP1, and MMP3. Put plainly: qRT-PCR gene expression in drug-treated fibroblasts: panel of fibrosis-related marker genes. The data set is classed as cell-based, human. Conditions: 4 d treatment; 50 µM. As to the method:
Drug treatments were performed as follows. […] RNA from cells after 4 d of drug treatment was isolated using the NucleoSpin RNA/protein mini kit (Macherey-Nagel, Allentown, PA, USA, 740933.50) according to the manufacturer’s instructions. The concentration of isolated RNA was measured using a Nanodrop 2000c Spectrophotometer (Thermo Scientific). […] A SYBR-based PowerTrack master mix (Thermo Fisher Scientific A46012) was used to perform RT-qPCR on a QuantStudio 6 Pro Real-Time PCR system (Thermo Fisher Scientific) in 10 μL reactions. The thermal protocol was as follows: 95 °C for 2 min, then 40 cycles of 95 °C for 15 s and 60 °C for 60 s. PCR primer sequences are listed in Table 2 and were the same as used in Larson et al., 2019 [17]. Fold change in gene expression was determined using the ΔΔCT method with GAPDH as the housekeeping gene.
A general note: In qPCR the cycle at which signal appears reflects the starting amount.

The test system of data set [3] is smooth-muscle α-actin (α-SMA). As to the kind of experiment: Immunofluorescence staining for α-SMA in treated fibroblasts. It is filed as cell-based, human. The following applies: 4 d treatment, 50 µM drug or tea (A. afra 1/4X). From the text:
After 1 and 4 d, cells were fixed with paraformaldehyde and stained for immunofluorescence using primary mouse anti-α-SMA (Santa Cruz Biotechnology, Dallas, TX, USA, sc-32251) and secondary goat anti-mouse IgG AlexaFluor488-conjugated antibodies (Thermo Fisher Scientific A-11001), and DNA was counterstained with Hoechst 33342 as previously described.

A short description of data set [4]: GC-MS analysis of culture media incubated with drugs in the absence of cells. The data set is classed as physicochemical.
Data set [5] concerns human dermal fibroblasts (CRL-2097). Put plainly: Resazurin viability assay of human dermal fibroblasts. The following applies: for change in fibroblast viability: 50 µM. (Alamar Blue is a resazurin reagent that responds to reducing activity.)
Experimental: as §1, §2
The test system of the next data set is TGFB2. Put plainly: qRT-PCR gene expression in drug-treated fibroblasts: TGFB2. It is filed as cell-based, human. Conditions: 4 d treatment; 50 µM; GAPDH internal control.
For another data set, the system named is TGFBR1. As to the kind of experiment: qRT-PCR gene expression in drug-treated fibroblasts: TGFBR1. The following applies: 4 d treatment; 50 µM; GAPDH internal control. The data set is classed as cell-based, human.
The next data set deals with MMP1. As to the kind of experiment: qRT-PCR gene expression in drug-treated fibroblasts: MMP1. The data set is classed as cell-based, human. Conditions: 4 d treatment; 50 µM; GAPDH internal control.
The test system of a further data set is MMP3. Put plainly: qRT-PCR gene expression in drug-treated fibroblasts: MMP3. The data set is classed as cell-based, human. Conditions: 4 d treatment; 50 µM; GAPDH internal control.
Data set [6] can be described thus: Thin-layer chromatography of media from drug-treated fibroblasts. It is filed as in vitro ADME, human. The following applies: fibroblast cultures, 50 µM.
Experimental: Media were extracted 1:1 with dichloromethane overnight, after which the solvent was separated and dried. Extracts (equivalent to 1 mL media) were resuspended in dichloromethane, spotted on Si-gel 60 F254 plates (EMD Millipore, Burlington, MA, USA, cat #1.05735.0001), and run in a mobile phase of 5:11:4 dichloromethane–hexane–acetone plus 0.5% v/v acetic acid. Plates were stained with p-anisaldehyde reagent (75 mL ethanol, 2.5 mL sulfuric acid, 1 mL acetic acid, and 2 mL p-anisaldehyde (Sigma Aldrich, St. Louis, MO, USA, A88107-100G)) and heated for 10 min at 105 °C.
The mark [7] stands for this setting: cell-free culture media incubated 4 days, 50 µM ART drugs, GC-MS.
[8] abbreviates: cell-free culture media, 50 µM ART drugs, GC-MS.
The mark [9] stands for this setting: 1 d treatment, 50 µM drug or tea normalized to 50 µM ART, % of solvent control.

For the compound `CO[C@H]1O[C@@H]2O[C@@]3(C)CC[C@H]4[C@H](C)CC[C@@H]([C@H]1C)[C@@]24OO3` [AM, artemether], in data set [1], the “change in fibroblast viability” value was “no significant change”.
With `C[C@@H]1CC[C@H]2[C@@H](C)C(=O)O[C@@H]3O[C@@]4(C)CC[C@@H]1[C@]32OO4` [ART, artemisinin], the “effects on the expressions of other markers (other than MMP1)” value in data set [2] is recorded as “lacked effects”. Moreover, in data set [3], the “α-SMA staining compared to solvent control” value is “substantial increase”. Further, in data set [4] (setting [7]), the “concentration of dART in culture media, Day 4” value (“concentration of dART … Day 4” below) worked out at 500 ng/mL. For the same compound, the “concentration of the treatment drug (ART for the tea) in culture media, Day 4” value in data set [4] (cell-free culture media incubated 4 days, 50 µM ART drugs, GC-MS, ND = not detected) amounted to 420 ng/mL. Besides, the “concentration of dART in culture media, Day 0” value (“concentration of dART … Day 0” for short) in data set [4] (setting [8]) amounted to 0 ng/mL. The ART disappeared in data set [4] (day 4, cell-free culture media) was > 99%. In addition, the “change in fibroblast viability” value in data set [5] (1 d exposure, vs solvent control) is reported as “no significant change”. For the same compound, the “decrease in fibroblast viability” value in data set [5] (4 d treatment, 50 µM drug or tea infusion, % of respective control) is “about 20%”.
Take `C[C@H]1[C@H](OC(=O)CCC(=O)O)O[C@@H]2O[C@@]3(C)CC[C@H]4[C@H](C)CC[C@@H]1[C@@]24OO3` [AS, artesunate]: the “α-SMA staining compared to solvent control” value in data set [3] was “considerably decreased”. Besides, the “concentration of dART … Day 4” value in data set [4] (setting [7]) came to 1500 ng/mL. Moreover, the “concentration of dART … Day 0” value in [4] (setting [8]) was determined as 0 ng/mL. The “decrease in fibroblast viability” value in [5] (setting [9]) is listed as ~35%.
As to `C[C@H]1[C@@H](O)O[C@@H]2O[C@@]3(C)CC[C@H]4[C@H](C)CC[C@@H]1[C@@]24OO3` [DHA, dihydroartemisinin], the “decrease in TGFB2 expression, fold change vs. solvent control” value in the data set with TGFB2 was 3.7 fold. In addition, the “decrease in TGFBR1 expression, fold change vs. solvent control” value with TGFBR1 was 4 fold. The “increase in MMP1 expression, fold change vs. solvent control” value in the data set with MMP1 came out at 8 fold. Further, the “increase in MMP3 expression, fold change vs. solvent control” value in the data set with MMP3 is recorded as 51.8 fold. Besides, the “α-SMA staining compared to solvent control” value in data set [3] is listed as “considerably decreased”. In addition, in data set [6] (after day 1), the “treatment drug remaining in media (TLC)” value is on record as “nearly gone”. Besides, in data set [6] (day 4), the “dART in media (TLC)” value is “observed” and the “treatment drug (ART for the tea) remaining in media (TLC)” value is reported as “undetectable”. Moreover, the “concentration of dART … Day 4” value in [4] (setting [7]) came out at 6900 ng/mL. Also, the “concentration of dART … Day 0” value in data set [4] (setting [8]) is 0 ng/mL. The “decrease in fibroblast viability” value in [5] (setting [9]) is on record as ~45%.
In the case of `C[C@@H]1CC[C@H]2[C@@H](C)C(=O)O[C@@H]3O[C@@]4(C)CC[C@@H]1[C@]32O4` [dART, deoxyartemisinin], the “change in fibroblast viability” value in data set [5] (4 d treatment, vs control) is on record as “no change”.
